Source: patent publication US20020192223A1 (priority 1989, published 2002)

Key:
[1] = system: cells obtained from tumors that grew back after BR96-DOX induced regression; assay: In vitro 3[H]-thymidine incorporation IC50; assay type: cell-based; settings: treatment (regrown tumor cells)
[2] = system: L2987 spheroids inoculated IV; assay: BR96-DOX against large disseminated tumors; assay type: in vivo, athymic mice; settings: DOX 8 mg/kg
Excerpt: L2987 lung carcinoma cells were selected in vitro for the ability to grow as multicellular spheroids. When injected IV into athymic mice or rats, tumors developed at various sites, including lymph nodes, lung, spleen, liver, brain, subcutaneously, and ascites was formed in some animals.
Mice were inoculated IV with L2987 spheroids.
The burden of disseminated disease in these animals was so far advanced that 50% of control animals died during the first 6 days of the experiment. […] Surviving mice were sacrificed 200 days after cell inoculation and sections of lung, lymph nodes, spleen, colon, jejunum, kidney, liver, brain, and heart were examined by histology.

[3] = system: L2987 lung tumor xenografts; assay: BR96-DOX against established subcutaneous xenografts; assay type: in vivo, athymic mice
Description: Athymic rats were transplanted subcutaneously with human lung adenocarcinoma L2987, colon carcinoma RCA, or breast carcinoma MCF7 and permitted to grow. […]
(§1) Mice and rats were administered with BR96-DOX by three injections, each injection being about four days apart. Mice which were injected intraperitoneally (IP) were given 20 mg/kg of BR96-DOX. Mice which were injected intravenously were given 10 mg/kg of BR96. Intravenous (IV) injection involved less volume of BR96 because of the constraints of injection volume, namely, only 10 mg/kg was administrable by IV.
(§2) Controls One set of controls included untreated mice and mice that received (1) DOX (at doses optimized to produce maximal antitumor activity in each model); (2) unconjugated BR96; (3) mixtures of BR96 and DOX; and (4) DOX conjugated to either normal human IgG or the control MAb SN7. Doses of DOX and MAb are presented as mg/kg/[…].
(§3) Treatment with BR96-DOX consistently cured most mice bearing L2987 (FIG. 46A) or RCA (FIG. 46B) tumors. […] Complete tumor regression (CR) refers to a tumor that for a period of time is not palpable. Partial tumor regression (PR) means a decrease in tumor volume to ≦50% of the initial tumor volume.

[4] = system: MCF7 human breast tumor xenografts; assay: Test VI in vivo activity of ChiBR96-ADM conjugates; design: species or system athymic mice; settings: ADM 6 mg/kg, iv
Excerpt: (§4) In general, there were 8-10 mice per control or treatment group. Data are presented as median tumor size for control or treated groups. Antitumor activity is expressed in terms of gross log cell kill (“LCK”) where: [formula]
(§5) T−C is defined as the median time (days) for treated tumors to reach target size minus the median time for control tumors to reach target size and TVDT is the time (days) for control tumors to double in volume (250-500 mm^3). Partial tumor regression (“PR”) refers to a decrease in tumor volume to ≦50% of the initial tumor volume; complete tumor regression (“CR”) refers to a tumor which for a period of time is not palpable; and cure is defined as an established tumor which is not palpable for a period of time ≧10 TVDTs.
(§6) Materials under investigation were administered by the ip or iv route. Adriamycin was diluted in normal saline; antibody and antibody/adriamycin conjugates were diluted in phosphate buffered saline. Compounds were administered on a mg/kg basis calculated for each animal, and doses are presented as mg/kg of equivalent adriamycin/injection. Immunoconjugates were administered on a q4dx3 schedule.
(§7) The antitumor activity of ChiBR96-ADM conjugates was evaluated against established human lung (“L2987”), breast (“MCF7,” obtainable from the ATCC under the accession number ATCC HTB 22; see also I. Hellström, et al., Cancer Research 50:2183 (1990)), and colon (“RCA” from M. Brattain, Baylor University; see also I. Hellström, et al., Cancer Research 50:2183 (1990)) tumors.
(§8) Animals were maintained and tumor xenograft models were established for the MCF7 and RCA and the L2987 human tumor lines as described for the L2987 in Test V. Materials were administered as described in Test V.
The MCF7 tumor is an estrogen-dependent human breast tumor line. Athymic mice were implanted with 0.65 mg (65 day release rate) estradiol pellets (Innovative Research of America, Toledo, Ohio) on the day of tumor implant. Therapy was initiated when the median tumor size was 100 mm^3 (typically 13 days after tumor implant).

[5] = system: L2987 human lung tumor xenografts; assay: Test VI in vivo activity of ChiBR96-ADM conjugates; design: species or system athymic mice
Excerpt: as §4, §5, §6, §7, §8
For animals bearing the L2987 human lung tumor, therapy typically was initiated when the median tumor size was 75 mm^3 (12-14 days after tumor implant). The average TVDT was 4.8±0.9 days and antitumor activity was assessed at a tumor size of 500 mm^3. In several experiments therapy was initiated when L2987 tumors were 225 mm^3 in size.

[6] = system: RCA colon carcinoma xenografts; assay: BR96-DOX against established subcutaneous xenografts; assay type: in vivo, athymic mice
Description: (§9) Athymic rats were transplanted subcutaneously with human lung adenocarcinoma L2987, colon carcinoma RCA, or breast carcinoma MCF7 and permitted to grow. Therapy (3 treatments 4 days apart) started 14 to 28 days after tumor transplantation when tumors were well established, i.e., when the tumors were 50 to 100 mm^3 in size.
as §1, §2, §3

parental cell line = assay: In vitro 3[H]-thymidine incorporation IC50; assay type: cell-based
[7] = system: L2987 human lung tumor xenografts; assay: Test V in vivo activity of relaxed BR64 and L6 conjugates; design: species or system BALB/c nu/nu mice; settings: optimized doses of adriamycin
Description: The in vivo antitumor activity of immunoconjugates of adriamycin and relaxed BR64 or relaxed L6 was evaluated.
Congenitally athymic female mice of BALB/c background (BALB/C nu/nu; Harlan Sprague-Dawley, Indianapolis, Ind.) were used. Mice were housed in Thoren caging units on sterile bedding with controlled temperature and humidity. Animals received sterile food and water ad libitum.
The L2987 human tumor line was established as tumor xenograft models in athymic mice. The tumor line was maintained by serial passage in vivo. Tumors were measured in 2 perpendicular directions at weekly or biweekly intervals using calipers. Tumor volume was calculated according to the equation: [formula]
In general, there were 8-10 mice per control or treatment group. Data are presented as median tumor size for control or treated groups. Antitumor activity is expressed in terms of gross log cell kill (“LCK”) where: [formula] […]
For animals bearing the L2987 human lung tumor, therapy was typically initiated when the median tumor size was 75 mm^3(12-14 days after tumor implant). The average TVDT was 4.8±0.9 days and antitumor activity was assessed at a tumor size of 500 mm^3. […]
Materials under investigation were administered by the ip or iv route. […] Compounds were administered on a mg/kg basis calculated for each animal, and doses are presented as mg/kg of equivalent adriamycin/injection. […]

[8] = system: RCA human colon tumor xenografts; assay: Test VI in vivo activity of ChiBR96-ADM conjugates; design: species or system athymic mice
Excerpt: as §4, §5, §6, §7, §8
For animals bearing the RCA colon tumor, therapy was initiated 15 days after tumor implant when the median tumor size was 75 mm^3. The average TVDT for RCA tumor xenografts was 9.5±1.5 days and antitumor activity was assessed at 400 mm^3.

[9] = Maximum tolerated dose, 3 injections 4 days apart; assay type: in vivo, mice; settings: equivalent DOX dose
Description: The maximum tolerated dose (MTD) (equivalent DOX dose) of the BR96-DOX conjugate (administered as 3 injections 4 days apart) was 20 mg/kg administered intraperitoneally (IP). When administered intravenously (IV) the MTD was ≧10 mg/kg. This was the maximum dose that could be administered IV because of the constraints of injection volume.
The MTD of unconjugated DOX (8 mg/kg IV and 4 mg/kg IP) was lower than that of the BR96-DOX conjugate. Unconjugated DOX administered IV at the MTD produced a delay in tumor growth but no tumor regressions and if the dose was reduced to 50% of the MTD, DOX had no effect.

[10] = system: L2987 human lung carcinoma, subcutaneous; assay: BR96-DOX against human lung tumors implanted in rats; assay type: in vivo, athymic Rowett rats
Excerpt: Athymic mice and athymic Rowett rats (Harlan Sprague Dawley) were used in this study.
as §9
Another set included rats using the protocol used in control mice.

[11] = Solubility of the hydrazone during conjugation; assay type: physicochemical; settings: PBS
Description: 3. The solution is transferred back to a round bottom flask equipped with a magnetic stirrer and kept in ice. The solution continuously is blanketed by nitrogen. The volume of the solution is noted. […] A solution of maleimidocaproyl hydrazone of adriamycin in distilled water (5 mg/mL, 6.3×10^−3 M) is prepared (notes 7, 8). The amount (in mL) of this solution needed for the conjugation is determined by the formula: [formula]
10. Brief applications of a sonicator will facilitate dissolution in distilled water. The resulting solution is stable.

For COc1cccc2c1C(=O)c1c(O)c3c(c(O)c1C2=O)C[C@@](O)(C(=O)CO)C[C@@H]3O[C@H]1C[C@H](N)[C@H](O)[C@H](C)O1 [Adriamycin, adriamycin], the IC50 [1] was 400 ± 100 nM, the “day by which 100% of the mice were dead” value [2] was 140 days and the “tumor regressions: Complete” value ([3]; L2987, q4dx3, DOX 8.0, no MAb) was 0%. The “tumor regressions: Cures” value ([3]; L2987, q4dx3, DOX 8.0, no MAb) was 0%, the “tumor regressions: Partial” value ([3]; L2987, q4dx3, DOX 8.0, no MAb) was 0.8 ± 0.8% and the antitumor activity ([3]; L2987 tumors 250 to 800 mm^3, optimal dose of DOX) was “antitumor activity was not observed”. It also gave a CR [4] of 0%, a Cure [4] of 0% and an LCK [4] of 1.4. For the same molecule, the PR [4] was 0%, the CR ([5]; ADM 8 mg/kg, iv (Table 16)) was 0% and the Cure ([5]; ADM 8 mg/kg, iv (Table 16)) was 0%. The PR ([5]; ADM 8 mg/kg, iv (Table 16)) was 0%, the LCK ([5]; ADM 8 mg/kg, iv, q4dx3 (Table 16)) was 1.5 and the CR ([5]; ADM 8 mg/kg, no antibody, iv) was 0%. The Cure ([5]; ADM 8 mg/kg, no antibody, iv) was 0%, the PR ([5]; ADM 8 mg/kg, no antibody, iv) was 3.6% and the LCK ([5]; ADM 8 mg/kg, no antibody, iv, q4dx3 (55 mice)) was 1-1.8. The LCK ([5]; FIG. 57, optimized adriamycin (8 mg/kg)) was 1.0 LCK, the LCK ([5]; FIG. 58, optimized adriamycin) was 1.6 LCK and the “activity against established RCA tumors (growth delay or regressions)” value ([6]; DOX alone) was “not active”. For the same molecule, the “tumor regressions: Complete” value ([6]; RCA, q4dx3, DOX 8.0, no MAb) was 0%, the “tumor regressions: Cures” value ([6]; RCA, q4dx3, DOX 8.0, no MAb) was 0% and the “tumor regressions: Partial” value ([6]; RCA, q4dx3, DOX 8.0, no MAb) was 0%. For the same molecule, the “tumor regressions: Complete” value ([6]; mouse, in vivo) was 0%, the “tumor regressions: Cures” value ([6]; mouse, in vivo) was 0% and the “tumor regressions: Partial” value ([6]; mouse, in vivo) was 0%. It also gave an IC50 (parental cell line) of 300 ± 200 nM, an LCK [7] of 1.1 LCK and a CR ([8]; 10/405 mg/kg, ip) of 0%. The Cure ([8]; 10/405 mg/kg, ip) was 0%, the LCK ([8]; 10/405 mg/kg, ip) was 0 and the PR ([8]; 10/405 mg/kg, ip) was 0%. For the same molecule, the CR ([8]; ADM 8/0 mg/kg, iv) was 0%, the Cure ([8]; ADM 8/0 mg/kg, iv) was 0% and the LCK ([8]; ADM 8/0 mg/kg, iv) was 0.4. The PR ([8]; ADM 8/0 mg/kg, iv) was 0%, the “maximum tolerated dose (MTD)” value ([9]; intraperitoneally (IP)) was 4 mg/kg and the “maximum tolerated dose (MTD)” value ([9]; intravenously (IV)) was 8 mg/kg. The “MTD of free DOX” value ([10]; 3 injections 4 days apart) was 4 mg/kg and the cures ([10]; rats, 4 mg/kg, 3 injections 4 days apart (MTD of free DOX)) was 25%.
For COc1cccc2c1C(=O)c1c(O)c3c(c(O)c1C2=O)C[C@@](O)(/C(CO)=N/NC(=O)CCCCCN1C(=O)C=CC1=O)C[C@@H]3O[C@H]1C[C@H](N)[C@H](O)[C@H](C)O1 [hydrazone, Maleimidocaproylhydrazone of Adriamycin], the solubility [11] was “not very soluble in PBS”.
